Like-named read-outs stand apart in the source and are kept apart here.

For series [1], the system named is P493B lymphoma cells. Briefly: Cell proliferation assay (CellTiter 96 AQueous). The series is classed as cell-based, human. To be noted: for EC50: Homo sapiens, 72 h incubation, read-out: EC50 (cell viability). As for the experimental part:
The cell proliferation assay was performed using the CellTiter 96® AQueous one solution cell proliferation reagent following the manufacturers' instruction (Promega, USA). Briefly, P493B lymphoma cells were plated in 96 well plates at a density of 20,000 cells/well in a final volume of 100 μL growth media. Test compound stocks were made in DMSO and were added to cells in a 1:10 serial dilution with a final concentration of 0.2% DMSO. Cells were allowed to proliferate for 72 h in the presence of test compounds. Thereafter, 20 μL of CellTiter 96™ AQeous (Promega #3580) was added per well and incubated for 2 h. Absorbance was measured at 490 nm.
DON and compound 7 were incubated with P493B lymphoma cells for 72 h, and cell viability was measured.

The nature of series [2]: Dog pharmacokinetic study of compound #2 (IV infusion or SC). It is filed as in vivo. To be noted: intact #2 in plasma, 0.2 mg/kg DON equivalent, male beagle dog; for AUC(0-t): read-out: Intact compound AUC0-t. As for the experimental part: The dog pharmacokinetic study was conducted in accordance with the guidelines recommended in Guide for the Care and Use of Laboratory Animals and was approved by the Absorption Systems (San Diego, CA) Institutional Animal Care and Use Committee. Compound #2 was administered to male beagle dogs (n=1/group) as a bolus subcutaneous dose or infused over 1 h at a dose of 0.2 mg/kg DON equivalent. Blood samples were collected from the jugular vein (˜1 mL) via direct venipuncture at 0 min, 5 min (IV only), 15 min, 1 h, 2 h, 4 h, 8 h, and 24 h, post dose, placed into sodium heparin tubes, and maintained on wet ice until processing. Blood samples were centrifuged at a temperature of 4° C., at 3000× g, for 5 minutes. Plasma was collected in tubes and flash frozen. Samples were stored in a freezer set to maintain −60° C. to −80° C. until bioanalysis as described previously (see, Rais et al., 2016; Nedelcovych et al., 2017).

For series [3], the system named is P493B lymphoma cells. Briefly: Human tumor cell to plasma partitioning assay, single time-point (compounds 1, 7, 12, 16 and DON). The series is classed as cell-based. To be noted: 20 μM; for DON release in plasma: human plasma containing P493B cells, 1 h incubation. As for the experimental part:
Compounds 1, 7, 12 and 16 were evaluated for their ability to be taken up in tumor cells and cleaved to give DON. The experimental conditions are described below.
(§1) Tumor cell to plasma partitioning assay was conducted in P493B lymphoma cells (obtained from Dr. Chi Dang, Abramson Cancer Center, University of Pennsylvania, Philadelphia, PA; (REF, Nature 458, 762-765, 2009). In brief, cells were grown in 150 cm^2 cell T-flasks (Falcon™, USA) with RPMI 1640, 1× L-glutamine medium (Corning™ Cellgro™, USA) supplemented with 10% (v/v) FBS (Gibco™, USA), and 1% streptomycin and gentamycin (Gibco™, USA). All cells were incubated at 37° C., in a humidified atmosphere with 5% CO2. The cell confluency was monitored visually using an Axiovert 25 optical microscope equipped with an 3CCD digital camera. Upon confluency, cell suspension was collected and centrifuged at 1000 rpm for 5 min at 25° C. to collect the cell pellet. The supernatant media was decanted, the cell pellet was re-suspended in 20 mL of DPBS (Gibco™, USA), and maintained at 37° C. in order to remove the media traces.
The cell count was determined using an automated cell counter (Bio-Rad, USA) following a 1:1 dilution of an aliquot with 0.4% trypan blue solution (Bio-Rad, USA). The cell suspension in DPBS was centrifuged at 1000 rpm for 5 min at 25° C. to collect the cell pellet. The supernatant DPBS was decanted and the cell pellets were resuspended in human plasma (Innovative Research, USA) to obtain a cell density of 10 million cells/mL of plasma. For analysis of cell partitioning cell-plasma suspension, 1 ml, was pre-incubated at 37° C. for 5 min, following which, compounds were spiked for a final concentration of 20 μM and re-incubated at 37° C. for 1 h. Following incubation, the cell suspension was centrifuged at 10000 rpm for 10 min at 4° C. Supernatant plasma obtained after centrifugation was collected and stored at −80° C. for intact compound and DON analysis. The cell pellet was washed once with ice cold DPBS, followed by centrifugation and stored at −80° C. for intact prodrug and/or DON analysis by LC-MS/MS.
For quantification of DON and intact compound, cell pellets were weighed and suspended in 50 μL of water. To the cell suspension, ice cold methanol with internal standards (losartan: 0.5 μM and glutamate D5: 10 μM) were added in a 5:1 ratio of solvent to cell suspension. The cell samples were vortexed, mixed for 30 sec and centrifuged at 10,000 rpm for 10 min at 4° C. For intact compound bioanalysis, 50 μL of the supernatant obtained after centrifugation was diluted with 50 μL water and transferred to a 250 μL polypropylene vial sealed with a Teflon cap. DON bioanalysis was performed following dabsyl chloride derivatization method with minor modifications (see, Rais et al., 2016; Nedelcovych et al., 2017). Briefly, 200 μL of the supernatant was collected in a separate tube and dried at 45° C. under vacuum for 1 h. To each tube, 50 μL of 0.2 M sodium bicarbonate buffer (pH 9.0) and 100 μL dabsyl chloride stock was added. […] The standard curve for DON quantification in the cell pellet was prepared using naïve P493B cells diluted with water to the equivalent ratio as that of sample.
Briefly, DON was analyzed on a Dionex ultra high-performance system consisting of an analytical pump, and an autosampler coupled with Q Exactive Focus orbitrap mass spectrometer (Thermo Fisher Scientific Inc., Waltham MA). […]

The subject of series [4] is P493B tumor cells. The series can be described thus: Time dependent tumor cell to plasma partitioning of compound 7. It is filed as cell-based, human. How it is done:
as §1
The cell count was determined using an automated cell counter (Bio-Rad, USA) following a 1:1 dilution of an aliquot with 0.4% trypan blue solution (Bio-Rad, USA). The cell suspension in DPBS was centrifuged at 1000 rpm for 5 min at 25° C. to collect the cell pellet. The supernatant DPBS was decanted and the cell pellets were resuspended in human plasma (Innovative Research, USA) to obtain a cell density of 10 million cells/mL of plasma. […]

Series [5] in a line: Compound 7 dog pharmacokinetic study (SC). The series is classed as in vivo. Particulars: beagle dog plasma, actual dose 2.6 mg/kg (DON eq. 0.8 mg/kg). The source says: Compound 7 was administrated to a beagle dog subcutaneously. FIG. 4C is a line graph showing its plasma pharmacokinetics in the dog.

For `[N-]=[N+]=CC(=O)CC[C@H](N)C(=O)O` [DON, 6-diazo-5-oxo-L-norleucine, reference compound], the EC50 (as a rule, the concentration that produces a half-maximal response) in series [1] was 10 ± 0.11 µM.
As to `CC(=O)NCCCC[C@H](NC(=O)OCC1c2ccccc2-c2ccccc21)C(=O)N[C@@H](CCC(=O)C=[N+]=[N-])C(=O)OC(C)C` [Compound 2, Isopropyl 2-(2-((((9H-fluoren-9-yl)methoxy)carbonyl)amino)-6-acet-amidohexanamido)-6-diazo-5-oxohexanoate], in series [2] (IV infusion over 1 h), the Cmax (commonly the maximum level reached in the sampled fluid or tissue) was determined as 6.57 µM, the Tmax (usually the time at which the peak concentration occurs) came to 0.08 h and the AUC(0-t) was found to be 7.45 µM·h. In series [2] (SC bolus), the Cmax amounted to 0.47 µM, the Tmax worked out at 4 h and the AUC(0-t) is 2.6 µM·h.
In the case of `CC(=O)NCCCC[C@H](NC(=O)[C@@H]1Cc2ccccc2CN1C(C)=O)C(=O)N[C@@H](CCC(=O)C=[N+]=[N-])C(=O)OC(C)C` (stereo in doubt) [Compound 16, Isopropyl 2-(6-acetamido-2-(2-acetyl-1,2,3,4-tetrahydroisoquinoline-3-carboxamido)hexanamido)-6-diazo-5-oxohexanoate], in series [3], the “DON release in plasma” value is given as “minimal DON release”. For the same molecule, the “DON release in tumor cells (tumor cell DON concentrations)” value in series [3] (human plasma with 10 million P493B cells, 37° C., 1 h, compared to DON) is “minimal release”.
Turning to `CC(=O)NCCCC[C@H](NC(=O)C12CC3CC(CC(C3)C1)C2)C(=O)N[C@@H](CCC(=O)C=[N+]=[N-])C(=O)OC(C)C` [Compound 7], the “intact compound observed in tumor cells” value in series [4] was less than 1%. In addition, in series [3], the “DON release in plasma” value is listed as “minimal DON release”. In series [5] (N = 1, read-out: AUC Cpd 7), the AUC (commonly the area under the concentration-time curve, a measure of exposure) was determined as 2.1 µM·h. Moreover, the Cmax in series [5] (N = 1, read-out: Cmax Cpd 7) came out at 640 nM. The “improvement of tumor cell killing vs DON” value in series [1] (72 h, EC50 compared to DON) is on record as “two-fold”. Further, in series [1], the EC50 came out at 5 ± 0.12 µM.
On to `CC(=O)NCCCC[C@H](NC(=O)OC(C)(C)C)C(=O)N[C@@H](CCC(=O)C=[N+]=[N-])C(=O)OC(C)C` [Compound 1, Isopropyl 2-(6-acetamido-2-((tert-butoxycarbonyl)amino)-hexanamido)-6-diazo-5-oxohexanoate], for which, in series [3], the “DON release in plasma” value is “minimal DON release”.
Consider `CC(=O)NCCCC[C@H](NC(=O)[C@H](Cc1c[nH]c2ccccc12)NC(C)=O)C(=O)N[C@@H](CCC(=O)C=[N+]=[N-])C(=O)OC(C)C` (stereo in doubt) [Compound 12, Isopropyl 2-(6-acetamido-2-(2-acetamido-3-(1H-indol-3-yl)propan-amido)hexanamido)-6-diazo-5-oxohexanoate], for which, in series [3], the “DON release in plasma” value was “minimal DON release”.

For the origin of these results see patent publication US12195419B2, “Glutamine antagonists and uses thereof” (The Johns Hopkins University, priority 2017, dated 2025).
